# From patent US12503438B2, “Compounds for the treatment of kinase-dependent disorders” (Exelixis, Inc., priority 2019, dated 2025)
# Assays:
# [1] = molecular target: T1, Human Axl (Homo sapiens, UniProt P30530, Q764R); assay: Human AXL kinase assay (33P-phosphoryl transfer radiometric, KinaseProfiler); conditions: biochemical activity; 10 μM ATP
# T1 construct: Human Axl (residues H473-A894 with Q764R, 161 nM); purchased Eurofins Pharma Discovery Services UK Limited (KinaseProfiler service)
# T1 sequence (P30530 473-894 Q764R): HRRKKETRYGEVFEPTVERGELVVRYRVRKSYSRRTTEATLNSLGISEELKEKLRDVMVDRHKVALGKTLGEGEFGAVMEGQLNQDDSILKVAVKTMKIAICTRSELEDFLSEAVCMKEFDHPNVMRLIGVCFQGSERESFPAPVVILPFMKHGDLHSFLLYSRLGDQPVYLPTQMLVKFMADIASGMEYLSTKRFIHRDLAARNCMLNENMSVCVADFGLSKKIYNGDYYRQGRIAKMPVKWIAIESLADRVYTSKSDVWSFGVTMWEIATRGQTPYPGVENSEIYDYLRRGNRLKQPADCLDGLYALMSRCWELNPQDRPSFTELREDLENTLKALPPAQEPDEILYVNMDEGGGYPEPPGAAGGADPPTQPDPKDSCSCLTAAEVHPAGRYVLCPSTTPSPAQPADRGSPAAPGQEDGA
# Experimental: Kinase activity and compound inhibition were investigated using the ^33P-Phosphoryl transfer radiometric kinase assay, performed using the KinaseProfiler™ service of Eurofins Pharma Discovery Services UK Limited. Dose-response experiments were performed using nine compound concentrations in a 96-well microtiter plate. For each assay, all compounds were prepared to a 50× final assay concentration (50 μM) in 100% DMSO, then diluted in a half-log series, with the final top concentration at 1 μM. This working stock of the compound was added to the assay well as the first component in the reaction, followed by the remaining components as detailed in the following assay protocols below. The positive control wells (100% kinase activity) contain all components of the reaction including 2% DMSO (control for solvent effects), except the compound of interest. Blank wells contain all components of the reaction, with the reference inhibitor, staurosporine. This reference compound was used to abolish kinase activity and generated the 0% kinase activity base-line. IC50 values were calculated by nonlinear regression analysis using the sigmoidal dose-response (variable slope) curve fit on XLFit version 5.3 (ID Business Solutions).
# Human Axl (residues H473-A894 with Q764R, 161 nM) was incubated with 8 mM MOPS pH 7.0, 0.2 mM EDTA, 250 μM KKSRGDYMTMQIG, 10 mM magnesium acetate, and 10 μM [y-^33P-ATP]. The reaction was initiated by the addition of the Mg/ATP mix. After incubation for 40 minutes at room temperature, the reaction was stopped by the addition of phosphoric acid to a concentration of 0.5%. A reaction aliquot of 10 μL was then spotted onto a P30 filtermat and washed four times for 4 minutes in 0.425% phosphoric acid and once in methanol prior to drying and scintillation counting. Incorporated ^33P was measured using the Wallac Microbeta scintillation counter (Perkin Elmer).
# [2] = molecular target: T2, AXL (Homo sapiens, UniProt P30530); assay: AXL autophosphorylation ELISA in A-172 cells; format: cell-based; conditions: cellular activity, Gas6-stimulated, phospho-AXL ELISA
# T2 construct: endogenous in cells; host or cells: A-172 glioblastoma cells (ATCC #CRL-1620)
# T2 sequence (P30530 26-894): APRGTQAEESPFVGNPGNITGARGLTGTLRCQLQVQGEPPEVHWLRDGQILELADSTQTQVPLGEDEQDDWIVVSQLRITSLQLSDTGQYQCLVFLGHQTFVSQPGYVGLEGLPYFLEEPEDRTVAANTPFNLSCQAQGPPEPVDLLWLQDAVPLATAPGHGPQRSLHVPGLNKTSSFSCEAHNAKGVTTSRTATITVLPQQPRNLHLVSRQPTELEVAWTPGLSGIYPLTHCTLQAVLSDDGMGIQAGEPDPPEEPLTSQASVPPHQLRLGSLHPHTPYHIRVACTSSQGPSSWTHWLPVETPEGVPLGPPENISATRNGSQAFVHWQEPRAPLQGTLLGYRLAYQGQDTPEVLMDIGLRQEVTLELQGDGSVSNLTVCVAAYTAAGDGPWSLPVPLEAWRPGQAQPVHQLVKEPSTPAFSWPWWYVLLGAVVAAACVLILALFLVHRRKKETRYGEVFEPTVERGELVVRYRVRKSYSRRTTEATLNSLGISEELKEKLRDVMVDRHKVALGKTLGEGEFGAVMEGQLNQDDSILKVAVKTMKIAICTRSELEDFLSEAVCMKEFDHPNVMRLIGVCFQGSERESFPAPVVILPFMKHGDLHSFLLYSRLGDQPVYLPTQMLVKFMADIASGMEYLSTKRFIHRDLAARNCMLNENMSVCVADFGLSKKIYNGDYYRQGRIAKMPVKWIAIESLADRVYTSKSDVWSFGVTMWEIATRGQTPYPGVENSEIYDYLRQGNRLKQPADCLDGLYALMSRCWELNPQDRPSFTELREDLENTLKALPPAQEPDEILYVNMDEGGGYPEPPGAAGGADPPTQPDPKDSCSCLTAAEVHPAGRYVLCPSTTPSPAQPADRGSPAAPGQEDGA
# Procedure, shortened: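 Serum-starved (24 h) A-172 glioblastoma cells got an 8-point compound series (0.3% DMSO) for 1 h, then 1 μg/mL human Gas6 for 15 min. Lysate phospho-AXL quantified by ELISA against phospho-AXL standard, normalized to DMSO and reference-inhibitor controls; IC50 by 4-parameter logistic fit.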
IC50 [1] [µM],IC50 [2] [µM],SMILES
≤ 0.01,0.01 to 0.1,"Cn1cc(-c2ccc3c(Oc4ccc(NC(=O)C5(C(=O)N6CCc7cc(F)ccc76)CC5)cc4)ccnc3c2)cn1 [Compound 81, 1-(5-Fluoro-2,3-dihydroindole-1-carbonyl)-N-[4-[7-(1-methylpyrazol-4-yl)quinolin-4-yl]oxyphenyl]cyclopropane-1-carboxamide]"
0.01 to 0.1,≤ 0.01,"O=C(Nc1ccc(F)cc1)C1(C(=O)Nc2ccc(Oc3ccnc4cc(-c5ccncc5)ccc34)cc2)CC1 [Compound 26, 1-N′-(4-Fluorophenyl)-1-N-[4-(7-pyridin-4-ylquinolin-4-yl)oxyphenyl]cyclopropane-1,1-dicarboxamide]"
0.01 to 0.1,≤ 0.01,"O=C(Nc1ccc(F)cc1)C1(C(=O)Nc2ccc(Oc3ccnc4cc(-c5cnn(C(F)F)c5)ccc34)cc2)CC1 [Compound 13, 1-N-[4-[7-[1-(Difluoromethyl)pyrazol-4-yl]quinolin-4-yl]oxyphenyl]-1-N′-(4-fluorophenyl)cyclopropane-1,1-dicarboxamide]"
≤ 0.01,≤ 0.01,"CN1CCC(n2cc(-c3ccc4c(Oc5ccc(NC(=O)C6(C(=O)Nc7ccc(F)cc7)CC6)cc5)ccnc4c3)cn2)CC1 [Compound 61, 1-N′-(4-Fluorophenyl)-1-N-[4-[7-[1-(1-methylpiperidin-4-yl)pyrazol-4-yl]quinolin-4-yl]oxyphenyl]cyclopropane-1,1-dicarboxamide]"
≤ 0.01,0.01 to 0.1,"O=C(Nc1ccc(F)cc1)C1(C(=O)Nc2ccc(Oc3ccnc4cc(-c5cnc[nH]5)ccc34)cc2)CC1 [Compound 72, 1-N′-(4-Fluorophenyl)-1-N-[4-[7-(1H-imidazol-5-yl)quinolin-4-yl]oxyphenyl]cyclopropane-1,1-dicarboxamide]"
0.01 to 0.1,0.01 to 0.1,"O=C(Nc1ccc(F)cc1)C1(C(=O)Nc2ccc(Oc3ccnc4cc(-c5ccccn5)ccc34)cc2)CC1 [Compound 85, 1-N′-(4-Fluorophenyl)-1-N-[4-(7-pyridin-2-ylquinolin-4-yl)oxyphenyl]cyclopropane-1,1-dicarboxamide]"
0.01 to 0.1,0.01 to 0.1,"Cn1nccc1-c1ccc2c(Oc3ccc(NC(=O)C4(C(=O)Nc5ccc(F)cc5)CC4)cc3)ccnc2c1 [Compound 54, 1-N′-(4-Fluorophenyl)-1-N-[4-[7-(2-methylpyrazol-3-yl)quinolin-4-yl]oxyphenyl]cyclopropane-1,1-dicarboxamide]"
0.01 to 0.1,0.01 to 0.1,"O=C(Nc1ccc(F)cc1)C1(C(=O)Nc2ccc(Oc3ccnc4cc(-c5nnco5)ccc34)cc2)CC1 [Compound 73, 1-N′-(4-Fluorophenyl)-1-N-[4-[7-(1,3,4-oxadiazol-2-yl)quinolin-4-yl]oxyphenyl]cyclopropane-1,1-dicarboxamide]"
≤ 0.01,≤ 0.01,"Cn1cnc(-c2ccc3c(Oc4ccc(NC(=O)C5(C(=O)Nc6ccc(F)cc6)CC5)cc4)ccnc3c2)c1 [Compound 69, 1-N′-(4-Fluorophenyl)-1-N-[4-[7-(1-methylimidazol-4-yl)quinolin-4-yl]oxyphenyl]cyclopropane-1,1-dicarboxamide]"
≤ 0.01,≤ 0.01,"COCCn1cc(-c2ccc3c(Oc4ccc(NC(=O)C5(C(=O)Nc6ccc(F)cc6)CC5)cc4)ccnc3c2)cn1 [Compound 10, 1-N′-(4-Fluorophenyl)-1-N-[4-[7-[1-(2-methoxyethyl)pyrazol-4-yl]quinolin-4-yl]oxyphenyl]cyclopropane-1,1-dicarboxamide]"
0.01 to 0.1,0.01 to 0.1,"CC1Cc2cc(F)ccc2N1C(=O)C1(C(=O)Nc2ccc(Oc3ccnc4cc(-c5cnn(C)c5)ccc34)cc2)CC1 (centres unmarked) [Compound 80, 1-(5-Fluoro-2-methyl-2,3-dihydroindole-1-carbonyl)-N-[4-[7-(1-methylpyrazol-4-yl)quinolin-4-yl]oxyphenyl]cyclopropane-1-carboxamide]"
0.01 to 0.1,≤ 0.01,"O=C(Nc1ccc(F)cc1)C1(C(=O)Nc2ccc(Oc3ccnc4cc(-c5ccn[nH]5)ccc34)cc2)CC1 [Compound 68, 1-N′-(4-Fluorophenyl)-1-N-[4-[7-(1H-pyrazol-5-yl)quinolin-4-yl]oxyphenyl]cyclopropane-1,1-dicarboxamide]"
0.01 to 0.1,0.01 to 0.1,"O=C(Nc1ccc(F)cc1)C1(C(=O)Nc2ccc(Oc3ccnc4cc(-c5ccn(C(F)F)n5)ccc34)cc2)CC1 [Compound 84, 1-N-[4-[7-[1-(Difluoromethyl)pyrazol-3-yl]quinolin-4-yl]oxyphenyl]-1-N′-(4-fluorophenyl)cyclopropane-1,1-dicarboxamide]"
0.1 to 1,0.1 to 0.3,"Cc1noc(C)c1-c1ccc2c(Oc3ccc(NC(=O)C4(C(=O)Nc5ccc(F)cc5)CC4)cc3)ccnc2c1 [Compound 53, 1-N-[4-[7-(3,5-Dimethyl-1,2-oxazol-4-yl)quinolin-4-yl]oxyphenyl]-1-N′-(4-fluorophenyl)cyclopropane-1,1-dicarboxamide]"
≤ 0.01,≤ 0.01,"O=C(Nc1ccc(F)cc1)C1(C(=O)Nc2ccc(Oc3ccnc4cc(-c5cnn(C6CCNCC6)c5)ccc34)cc2)CC1 [Compound 60, 1-N′-(4-Fluorophenyl)-1-N-[4-[7-(1-piperidin-4-ylpyrazol-4-yl)quinolin-4-yl]oxyphenyl]cyclopropane-1,1-dicarboxamide]"
0.01 to 0.1,0.01 to 0.1,"O=C(Nc1ccc(F)cc1)C1(C(=O)Nc2ccc(Oc3ccnc4cc(-c5ncco5)ccc34)cc2)CC1 [Compound 66, 1-N′-(4-Fluorophenyl)-1-N-[4-[7-(1,3-oxazol-2-yl)quinolin-4-yl]oxyphenyl]cyclopropane-1,1-dicarboxamide]"
0.01 to 0.1,0.01 to 0.1,"CNC(=O)c1cc2c(Oc3ccc(NC(=O)C4(C(=O)Nc5ccc(F)cc5)CC4)cc3)ccnc2cc1-c1cnn(C)c1 [Compound 77, 1-N′-(4-Fluorophenyl)-1-N-[4-[6-(methylcarbamoyl)-7-(1-methylpyrazol-4-yl)quinolin-4-yl]oxyphenyl]cyclopropane-1,1-dicarboxamide]"
0.01 to 0.1,0.01 to 0.1,"Cc1cc(F)cc(C)c1NC(=O)C1(C(=O)Nc2ccc(Oc3ccnc4cc(-c5cnn(C)c5)ccc34)cc2)CC1 [Compound 82, 1-N′-(4-Fluoro-2,6-dimethylphenyl)-1-N-[4-[7-(1-methylpyrazol-4-yl)quinolin-4-yl]oxyphenyl]cyclopropane-1,1-dicarboxamide]"
0.01 to 0.1,≤ 0.01,"O=C(Nc1ccc(F)cc1)C1(C(=O)Nc2ccc(Oc3ccnc4cc(-c5ccnnc5)ccc34)cc2)CC1 [Compound 28, 1-N′-(4-Fluorophenyl)-1-N-[4-(7-pyridazin-4-ylquinolin-4-yl)oxyphenyl]cyclopropane-1,1-dicarboxamide]"
